System: CD3-activated human T cells containing PD-1-positive cells
Test: Flow cytometry binding to CD3-activated human T cells
Type: cell-based
Conditions: primary antibody final concentration 20 g/mL as printed, Alexa Fluor 488 anti-human IgG secondary
Method: The cells used were CD3-activated human T cells containing HER2-positive SKBR-3 cells, EGFR-positive A-431 cells, and PD-1-positive cells.
200,000 cells cultured in D-MEM medium (Thermo Fisher Scientific, Inc.) supplemented with 10% FBS (Thermo Fisher Scientific, Inc.) were collected, and 20 μL of PBS containing Human TruStain FcX (Biolegend) was added, followed by blocking of Fc receptors on ice for 10 minutes. The primary antibody reaction was performed by adding the above-described antibodies as primary antibodies to a cell staining buffer (PBS containing 1% FBS) to a final concentration of 20 g/mL, adding 20 μL of the mixtures to the cells, and incubating them for 20 minutes on ice. The cells after the primary antibody reaction were washed twice with the cell staining buffer. The second antibody reaction was performed by adding 40 μL of Goat anti-Human IgG (H+L) Cross-Adsorbed Secondary Antibody, Alexa Fluor™488 (Thermo Fisher Scientific, Inc.) diluted with the cell staining buffer to 10 g/mL as the second antibody to the cells, and incubating the cells on ice for 20 minutes. The cells were washed twice with the cell staining buffer, and then subjected to analysis using Attune NxT Flow Cytometer (Thermo Fisher Scientific, Inc.).

pembrolizumab
cells in which fluorescence was observed (positive rate), CD3-activated human T cells: about 23%

Source: patent US20250101129A1, “AFFINITY SUBSTANCE, COMPOUND, AND ANTIBODY AND THEIR SALTS” (Ajinomoto Co., Inc., priority 2022, published 2025)
